According to paper PMC8857485, “Prostate secretory protein 94 inhibits sterol binding and export by the mammalian CAP protein CRISP2 in a calcium-sensitive manner” (The Journal of Biological Chemistry, 2022):
Counter-ions that a name gives are not always drawn.

Molecular target: T1, CRISP2^N97P L98G (Homo sapiens, UniProt P16562, L98G/N97P)
T1 construct: made in house; host or cells: E. coli
T1 sequence (P16562 22-243 N97P/L98G): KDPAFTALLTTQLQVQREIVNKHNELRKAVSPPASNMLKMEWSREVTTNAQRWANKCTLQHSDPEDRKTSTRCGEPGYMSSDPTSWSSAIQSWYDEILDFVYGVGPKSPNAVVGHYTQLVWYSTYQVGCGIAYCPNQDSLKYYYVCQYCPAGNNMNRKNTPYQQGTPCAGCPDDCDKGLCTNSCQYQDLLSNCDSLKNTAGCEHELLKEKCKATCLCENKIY
Assay: MST binding to CRISP2 double mutant N97P L98G
Set-up: species or system mammalian
Settings: absence of PSP94, read-out: Kd, sterol binding by CRISP2^N97P L98G
Procedure: Next, we generated all three double mutant combinations of CRISP2: N97P L98G, N97P Y99P, and L98G Y99P. These three double mutant versions of CRISP2 were again expressed as His-tagged proteins in E. coli and purified, and their capacity to bind sterols in the presence or absence of PSP94 was assessed by MST. […] The capacity of the CRISP2^L98G Y99P double mutant to bind sterols even in the presence of PSP94 was confirmed by the in vivo sterol export assay (Fig. 6, A and B). When expressed in yeast cells, the CRISP2^L98G Y99P double mutant was stably expressed and secreted as monitored by Western blotting (Fig. 6C).
MST experiments were performed to assess protein–protein, protein–lipid, and protein–calcium interactions using a Monolith NT.115 (Nanotemper Technologies). Proteins were labeled using the RED-tris-NTA His tag protein labeling kit. Labeled CAP proteins, 100 nM, were mixed with a serial dilution of unlabeled PSP94, PSP9^F24G, cholesterol sulfate, or calcium chloride, prepared in binding buffer (20 mM Tris pH 7.5, 30 mM NaCl, 0.05% Triton X-100). Samples were loaded into MST standard capillaries, and MST measurements were performed using an 80% laser power setting. The dissociation constant Kd was obtained by plotting the normalized fluorescence (Fnorm) against the logarithm of ligand concentration. […]

In the case of `CC(C)CCC[C@@H](C)[C@H]1CC[C@H]2[C@@H]3CC=C4C[C@@H](OS(=O)(=O)O)CC[C@]4(C)[C@H]3CC[C@]12C` [cholesterol sulfate], the Kd is reported as 3.8 ± 1.9 µM.
